Where “and” joins values, the source holds several entries; their conditions need not be identical. Equal entries are not always repeated. Inconclusive results and toxic doses are left out. Square brackets hold non-standard residues; d marks the D form. Peptide text beside a SMILES is read from it. ξ: configuration not given here. ξLac(3-iPr) = CC(C)CC(O)C(=O)O; NMeV = CN[CH](C(=O)O)C(C)C; NMeA = CN[CH](C)C(=O)O; βAla = NCCC(=O)O
Test system: BDF1 mice, B16 melanoma ip, median survival T/C
Assay: NCI In Vivo Anticancer Drug Screen. Data for tumor model B16 Melanoma (intraperitoneal) in B6D2F1 (BDF1) mice
Details: endpoint: median survival time, higher = longer survival
Method in brief: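 Survival or tumor size is measured after treatment of tumor-bearing mice and normalised to the vehicle-treated control group.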

[1] = dose: 50.0 mg/kg/injection, schedule: Q01DX009 (ip), vehicle: saline with Tween-80
[2] = dose: 100.0 mg/kg/injection, schedule: Q01DX009 (ip), vehicle: saline with Tween-80
[3] = dose: 200.0 mg/kg/injection, schedule: Q01DX009 (ip), vehicle: saline with Tween-80
[4] = dose: 6.25 mg/kg/injection, schedule: Q01DX009 (ip), vehicle: saline with Tween-80
[5] = dose: 200.0 mg/kg/injection, schedule: Q01DX009 (ip), vehicle: Klucel (hydroxypropylcellulose) (HPC)
[6] = dose: 12.5 mg/kg/injection, schedule: Q01DX009 (ip), vehicle: saline
[7] = dose: 25.0 mg/kg/injection, schedule: Q01DX009 (ip), vehicle: saline

With CO[C@H]1C[C@](C)(O)Cc2cc3c(c(O)c21)C(=O)c1c(O)cc2c(c1C3=O)O[C@@H]1O[C@@]2(C)[C@H](O)[C@@H](N(C)C)[C@@H]1O the T/C (dose: 0.78 mg/kg/injection, schedule: Q01DX009 (ip), vehicle: other) was 110 % of control, the T/C (dose: 1.56 mg/kg/injection, schedule: Q01DX009 (ip), vehicle: other) was 118 % of control and the T/C (dose: 2.3 mg/kg/injection, schedule: Q01DX005 (ip), vehicle: other) was 169 % of control. For the same compound, the T/C (dose: 2.3 mg/kg/injection, schedule: Q01DX005 (iv), vehicle: other) was 97 % of control, the T/C (dose: 2.3 mg/kg/injection, schedule: Q01DX009 (ip), vehicle: other) was 194 % of control and the T/C (dose: 3.12 mg/kg/injection, schedule: Q01DX009 (ip), vehicle: other) was 159 % of control. For the same compound, the T/C (dose: 3.13 mg/kg/injection, schedule: Q01DX009 (ip), vehicle: other) was 167 % of control, the T/C (dose: 4.5 mg/kg/injection, schedule: Q01DX005 (ip), vehicle: other) was 200 % of control and the T/C (dose: 4.5 mg/kg/injection, schedule: Q01DX005 (iv), vehicle: other) was 110 % of control. The T/C (dose: 4.5 mg/kg/injection, schedule: Q01DX005 (oral), vehicle: other) was 95 % of control, the T/C (dose: 4.5 mg/kg/injection, schedule: Q01DX009 (ip), vehicle: other) was 185 % of control and the T/C (dose: 4.5 mg/kg/injection, schedule: Q01DX009 (oral), vehicle: other) was 99 % of control. The T/C (dose: 6.25 mg/kg/injection, schedule: Q01DX009 (ip), vehicle: other) was 173 % of control and 177 % of control and 183 % of control, the T/C (dose: 9.0 mg/kg/injection, schedule: Q01DX005 (ip), vehicle: other) was 213 % of control and the T/C (dose: 9.0 mg/kg/injection, schedule: Q01DX005 (iv), vehicle: other) was 112 % of control. For the same compound, the T/C (dose: 9.0 mg/kg/injection, schedule: Q01DX005 (oral), vehicle: other) was 97 % of control, the T/C (dose: 9.0 mg/kg/injection, schedule: Q01DX009 (ip), vehicle: other) was 272 % of control and the T/C (dose: 9.0 mg/kg/injection, schedule: Q01DX009 (oral), vehicle: other) was 107 % of control. The T/C (dose: 10.8 mg/kg/injection, schedule: Q04DX003 (ip), vehicle: lactic acid) was 203 % of control, the T/C (dose: 12.5 mg/kg/injection, schedule: Q01DX009 (ip), vehicle: other) was 167 % of control and 191 % of control and 209 % of control and the T/C (dose: 18.0 mg/kg/injection, schedule: Q01DX001 (ip), vehicle: other) was 158 % of control. The T/C (dose: 18.0 mg/kg/injection, schedule: Q01DX001 (iv), vehicle: other) was 100 % of control, the T/C (dose: 18.0 mg/kg/injection, schedule: Q01DX005 (ip), vehicle: other) was 236 % of control and the T/C (dose: 18.0 mg/kg/injection, schedule: Q01DX005 (oral), vehicle: other) was 108 % of control. The T/C (dose: 18.0 mg/kg/injection, schedule: Q01DX009 (oral), vehicle: other) was 116 % of control, the T/C (dose: 25.0 mg/kg/injection, schedule: Q01DX001 (ip), vehicle: water) was 100 % of control and the T/C (dose: 36.0 mg/kg/injection, schedule: Q01DX001 (ip), vehicle: other) was 153 % of control. The T/C (dose: 36.0 mg/kg/injection, schedule: Q01DX001 (oral), vehicle: other) was 103 % of control, the T/C (dose: 36.0 mg/kg/injection, schedule: Q01DX005 (oral), vehicle: other) was 121 % of control and the T/C (dose: 72.0 mg/kg/injection, schedule: Q01DX001 (oral), vehicle: other) was 119 % of control.
For NCC(=O)NCC(=O)NC(Cc1ccc(O)cc1)C(=O)O (stereo not given), the T/C [1] was 104 % of control, the T/C [2] was 94 % of control and the T/C [3] was 102 % of control. The T/C (dose: 400.0 mg/kg/injection, schedule: Q01DX009 (ip), vehicle: saline with Tween-80) was 95 % of control.
For CS(=O)(=O)OCCN(CCOS(C)(=O)=O)c1ccc(C=O)cc1, the T/C [4] was 170 % of control.
For Cc1cccc(C2CCCC2c2ccccc2)c1 (stereo not given), the T/C (dose: 75.0 mg/kg/injection, schedule: Q01DX009 (ip), vehicle: Klucel (hydroxypropylcellulose) (HPC)) was 88 % of control, the T/C (dose: 150.0 mg/kg/injection, schedule: Q01DX009 (ip), vehicle: Klucel (hydroxypropylcellulose) (HPC)) was 97 % of control and the T/C (dose: 300.0 mg/kg/injection, schedule: Q01DX009 (ip), vehicle: Klucel (hydroxypropylcellulose) (HPC)) was 100 % of control.
O=[N+]([O-])c1cccs1 was tested, and the T/C (dose: 25.0 mg/kg/injection, schedule: Q04DX003 (ip), vehicle: Klucel (hydroxypropylcellulose) (HPC)) was 105 % of control, the T/C (dose: 50.0 mg/kg/injection, schedule: Q04DX003 (ip), vehicle: Klucel (hydroxypropylcellulose) (HPC)) was 105 % of control and the T/C (dose: 100.0 mg/kg/injection, schedule: Q04DX003 (ip), vehicle: Klucel (hydroxypropylcellulose) (HPC)) was 112 % of control.
CCO/C=C1\SC(=S)N(c2ccc(OCC)cc2)C1=O was tested, and the T/C [5] was 92 % of control.
With COC(=O)[C@@H]1c2cc3c(c(O)c2[C@@H](OC)C[C@@]1(C)O)C(=O)c1c(O)cc2c(c1C3=O)OC1O[C@@]2(C)[C@H](O)[C@@H](N(C)C)[C@@H]1O the T/C [6] was 155 % of control and 158 % of control, the T/C [7] was 165 % of control and 178 % of control and the T/C (dose: 50.0 mg/kg/injection, schedule: Q01DX009 (ip), vehicle: saline) was 184 % of control and 186 % of control. The T/C (dose: 200.0 mg/kg/injection, schedule: Q01DX009 (ip), vehicle: saline) was 153 % of control.
For Cc1ccc(Oc2ccc3cc[n+](C)cc3c2)cc1, the T/C (dose: 6.25 mg/kg/injection, schedule: Q01DX009 (ip), vehicle: saline) was 98 % of control, the T/C [6] was 100 % of control and the T/C [7] was 86 % of control.
For CCOC(=O)c1ccc(NS(=O)c2ccccc2)cc1 (stereo not given), the T/C [1] was 105 % of control and the T/C [2] was 91 % of control.
COc1ccc([I+]c2ccccc2)cc1 was tested, and the T/C (dose: 0.75 mg/kg/injection, schedule: Q01DX009 (ip), vehicle: saline with Tween-80) was 95 % of control, the T/C (dose: 1.5 mg/kg/injection, schedule: Q01DX009 (ip), vehicle: saline with Tween-80) was 97 % of control and the T/C (dose: 3.0 mg/kg/injection, schedule: Q01DX009 (ip), vehicle: saline with Tween-80) was 102 % of control. For the same compound, the T/C (dose: 6.0 mg/kg/injection, schedule: Q01DX009 (ip), vehicle: saline with Tween-80) was 93 % of control.
For N#CSCc1ccccc1Cl, the T/C (dose: 1.56 mg/kg/injection, schedule: Q04DX003 (ip), vehicle: saline) was 89 % of control, the T/C (dose: 3.13 mg/kg/injection, schedule: Q01DX009 (ip), vehicle: saline with Tween-80) was 105 % of control and the T/C (dose: 3.13 mg/kg/injection, schedule: Q04DX003 (ip), vehicle: saline) was 89 % of control. The T/C [4] was 105 % of control, the T/C (dose: 6.25 mg/kg/injection, schedule: Q04DX003 (ip), vehicle: saline with Tween-80) was 88 % of control and the T/C (dose: 6.25 mg/kg/injection, schedule: Q04DX003 (ip), vehicle: saline) was 86 % of control. For the same compound, the T/C (dose: 12.5 mg/kg/injection, schedule: Q01DX009 (ip), vehicle: saline with Tween-80) was 114 % of control.
In the case of COc1cc(C(C)c2cc3c(cc2OCCO)OCO3)cc(OC)c1OC (stereo not given), the T/C (dose: 25.0 mg/kg/injection, schedule: Q01DX009 (ip), vehicle: saline with Tween-80) is reported as 107 % of control, the T/C [1] is reported as 104 % of control and the T/C [2] is reported as 110 % of control. The T/C [3] was 112 % of control.
CCC(C)C1NC(=O)C2CCCN2C(=O)C(CC(C)C)OC(=O)CCNC(=O)C(C)N(C)C(=O)C(C(C)C)N(C)C1=O (stereo not given) (cyclo([ξLac(3-iPr)]PI[NMeV][NMeA][βAla]); configuration not given here) was tested, and the T/C (dose: 1.25 mg/kg/injection, schedule: Q01DX009 (ip), vehicle: saline) was 112 % of control, the T/C (dose: 2.5 mg/kg/injection, schedule: Q01DX009 (ip), vehicle: saline) was 111 % of control and the T/C (dose: 5.0 mg/kg/injection, schedule: Q01DX009 (ip), vehicle: saline) was 105 % of control. For the same compound, the T/C (dose: 10.0 mg/kg/injection, schedule: Q01DX009 (ip), vehicle: saline) was 107 % of control.
In the case of CC[CH2][Sn]([Cl])([Cl])[CH2]CC.Oc1ccccc1C=NCCN=Cc1ccccc1O, the T/C (dose: 0.6 mg/kg/injection, schedule: Q01DX009 (ip), vehicle: gum acacia) is reported as 95 % of control, the T/C (dose: 0.61 mg/kg/injection, schedule: Q01DX009 (ip), vehicle: gum acacia) is reported as 100 % of control and the T/C (dose: 1.25 mg/kg/injection, schedule: Q01DX009 (ip), vehicle: gum acacia) is reported as 92 % of control and 100 % of control. For the same compound, the T/C (dose: 2.5 mg/kg/injection, schedule: Q01DX009 (ip), vehicle: gum acacia) was 92 % of control and 94 % of control and the T/C (dose: 5.0 mg/kg/injection, schedule: Q01DX009 (ip), vehicle: gum acacia) was 90 % of control and 97 % of control.
With CCCCCCCCCCCC(O)CCCC (stereo not given) the T/C (dose: 6.25 mg/kg/injection, schedule: Q01DX009 (ip), vehicle: Klucel (hydroxypropylcellulose) (HPC)) was 99 % of control and the T/C (dose: 12.5 mg/kg/injection, schedule: Q01DX009 (ip), vehicle: Klucel (hydroxypropylcellulose) (HPC)) was 104 % of control.
Cc1cccc(NC(=O)c2ccccc2C(=O)O)c1C was tested, and the T/C (dose: 100.0 mg/kg/injection, schedule: Q01DX009 (ip), vehicle: Klucel (hydroxypropylcellulose) (HPC)) was 94 % of control, the T/C [5] was 94 % of control and the T/C (dose: 400.0 mg/kg/injection, schedule: Q01DX009 (ip), vehicle: Klucel (hydroxypropylcellulose) (HPC)) was 97 % of control.

— PubChem BioAssay AID192 (DTP/NCI, 2004)
